Test results from ChEMBL document CHEMBL1130907, “The novel cyclopropapyrroloindole(CPI) bisalkylators bearing 3,3'-(1,4-phenylene)diacryloyl group as a linker” (Bioorg Med Chem Lett, 1998).
Converted amounts (≈) assume the structure as drawn.

Key:
[1] = Ratio of MTD, maximum dose with in 10% body weight loss (ug/Kg) to that of TGI50 was reported; assay type: functional
Mus musculus = test: In vivo antitumor activity against colon 26 murine adenocarcinoma in male CDF1 mice and was expressed as 50% tumor growth inhibition.; assay type: functional
HeLa [2] = test: In vitro cytotoxicity against HeLaS3 human uterine cervix carcinoma; assay type: functional, cell-based
HeLa [3] = test: In vitro cytotoxicity against HeLaS3 human uterine cervix carcinoma.; assay type: functional, cell-based
[4] = Homo sapiens, HeLa, read-out: IC50

SMILES	Ratio [1]	TGI50 (Mus musculus)	IC50 (HeLa [2]; hela)	IC50 (HeLa [3])	IC50 (HeLa [2]; [4])
COC(=O)c1c(C(F)(F)F)[nH]c2c(O)cc3c(c12)[C@H](CCl)CN3C(=O)c1cc2cc(-c3ccc4[nH]c(C(=O)N5C[C@@H](CCl)c6c5cc(O)c5[nH]c(C(F)(F)F)c(C(=O)OC)c65)cc4c3)ccc2[nH]1	3.3	0.3 µg/kg	0.0049 ng/mL (≈ 0.00499 nM)		
Cc1c[nH]c2c(O)cc3c(c12)[C@H](CCl)CN3C(=O)c1cc2cc(NC(=O)Nc3ccc4[nH]c(C(=O)N5C[C@@H](CCl)c6c5cc(O)c5[nH]cc(C)c65)cc4c3)ccc2[nH]1 [BIZELESIN]	8.4	3.72 µg/kg			
COC(=O)c1c(C)[nH]c2c(O)cc3c(c12)[C@H](CCl)CN3C(=O)/C=C/c1ccc(/C=C/C(=O)N2C[C@H](CCl)c3c2cc(O)c2[nH]c(C)c(C(=O)OC)c32)cc1	8.8	0.891 µg/kg		0.00046 ng/mL (≈ 0.000596 nM)	
COC(=O)c1c[nH]c2c(O)cc3c(c12)[C@H](CCl)CN3C(=O)/C=C/c1ccc(/C=C/C(=O)N2C[C@H](CCl)c3c2cc(O)c2[nH]cc(C(=O)OC)c32)cc1	10.3	0.757 µg/kg		0.00035 ng/mL (≈ 0.000471 nM)	
COC(=O)c1cc2c3c(cc(O)c2[nH]1)N(C(=O)/C=C/c1ccc(/C=C/C(=O)N2C[C@H](CCl)c4c2cc(O)c2[nH]c(C(=O)OC)cc42)cc1)C[C@H]3CCl		100 µg/kg			0.023 ng/mL (≈ 0.0309 nM)
COC(=O)c1c(C(F)(F)F)[nH]c2c(O)cc3c(c12)[C@H](CCl)CN3C(=O)/C=C/c1ccc(/C=C/C(=O)N2C[C@H](CCl)c3c2cc(O)c2[nH]c(C(F)(F)F)c(C(=O)OC)c32)cc1	30.7	0.254 µg/kg	0.0027 ng/mL (≈ 0.00307 nM)		
O=C(/C=C/c1ccc(/C=C/C(=O)N2C[C@H](CCl)c3c2cc(O)c2[nH]c4ccccc4c32)cc1)N1C[C@@H](CCl)c2c1cc(O)c1[nH]c3ccccc3c21	8.2	3.8 µg/kg			0.072 ng/mL (≈ 0.0989 nM)
Cc1c[nH]c2c(O)cc3c(c12)[C@H](CCl)CN3C(=O)/C=C/c1ccc(/C=C/C(=O)N2C[C@H](CCl)c3c2cc(O)c2[nH]cc(C)c32)cc1	5.5	1.41 µg/kg	0.0013 ng/mL (≈ 0.00198 nM)		
